PMC11947101, “A phase Ia study of the MEK1/2 inhibitor PD-0325901 with the c-MET inhibitor crizotinib in patients with advanced solid cancers” (BJC Reports, 2025)

Assays:
[1] = Plasma pharmacokinetics (HPLC-MS/MS) of crizotinib, PD-0325901 and PD-0315209 in patients; assay type: in vivo, human; details: for Decrease in pre-dose concentrations on Days 21 compared to Day -1: Cycle 1 and 2, PD-0325901 8 mg B.D dose only; for Tmax: plasma, po, combination treatment, 4 dose levels, read-out: Time of peak plasma concentrations after oral dosing
Procedure: PK trough samples (pre-dose and 2-h post dose) were obtained on day 21 of cycles 2, 4, 6, 8, 10 and 12. Plasma concentrations were determined using a validated high-performance liquid chromatography mass spectrometry (HPLC-MS/MS) assay following solid-phase extraction of the plasma sample.

[2] = tested on: pERK1/2 and pMEK1/2 levels in skin biopsies; assay: Pharmacodynamic markers in paired skin biopsies by Western blotting; assay type: in vivo, human; details: in particular at 8 mg B.D PD-0325901
Procedure: All patients consented to a fresh frozen punch skin biopsy during screening and on cycle 1 day 15 (±7 days). PD markers of MEK1/2 inhibition (pMEK1/2 and pERK1/2 levels) in skin biopsies were assessed by Western blotting, previously described [18, 30]. […] Western blot images were developed using the G:BOX Chemi XX6 gel doc system (Syngene, Cambridge, UK). Densitometry on Western blot images was performed using ImageJ software.

[3] = tested on: patients with advanced solid tumours; details: in vivo
Description: (§1) Patients could remain on combination treatment until disease progression or predefined unacceptable toxicity. At each dose level and before escalation to the next level, a safety study board comprising representatives from the study sponsor and collaborating investigators reviewed individual patient safety and DLTs. DLTs were defined as an almost certainly or probable drug-related adverse events to either drug (Supplementary Table S1), during the first cycle of treatment.
(§2) Safety assessments comprised of physical examination including vital signs, weight, ECOG PS assessment, documentation of adverse events (AEs) and concomitant medication, with regular monitoring of haematology and biochemistry. Ophthalmic examinations (including visual acuity, pressure, perimetry, slit lamp examination, fundoscopy, and optical coherence tomography), ECG and Echocardiography/MUGA were performed at baseline and at pre-defined time-points during the trial. […] At this stage, patients were not required to have measurable disease. Anti-tumour activity was assessed by radiological investigations according to revised RECIST, version 1.1, at baseline (within 28 days before day 1 of cycle 1), then every 2 cycles and at the end of treatment.
(§3) Safety and efficacy data were summarised using descriptive statistics. Evaluable patients for toxicity were those patients that received at least one dose of one or both drugs. Evaluable patients for MTD or dose escalation were those patients who completed cycle 1 or withdrew early for experiencing a DLT. Response analyses (i.e., RECIST 1.1) were performed on an intention-to-treat basis, and any patient who received any dose of study treatment was evaluable for response. Progression-free-survival (PFS) was defined as the time between receiving the first dose of study medication (cycle 1, day -7) to disease progression or death from any cause. Overall survival (OS) was defined as the time between cycle 1, day -7 to death from any cause.

pERK1/2 = tested on: pERK1/2; set-up: method as in PMID 20215549; details: doses ≥2 mg PD-0325901 B.D; cited from earlier work
[4] = tested on: patients with advanced malignancies; details: cited from earlier work
[5] = tested on: patients with advanced solid tumours; assay: Phase Ia dose-escalation: safety, DLT and MTD of PD-0325901 with crizotinib
Description: as §1, §2, §3

cMET = details: cited from earlier work

## O=C(O)c1ccc(F)c(F)c1Nc1ccc(I)cc1F [PD-0315209]
[1]
  Decrease in pre-dose concentrations on Days 21 compared to Day -1: 1.8–2.2 fold

## O=C(NOC[C@H](O)CO)c1ccc(F)c(F)c1Nc1ccc(I)cc1F [PD-0325901]
[1]
  Decrease in pre-dose concentrations on Days 21 compared to Day -1: 1.8–2.2 fold
[1]; all dose levels
  Plasma concentrations relative to those required to inhibit MEK1/2 activity: reached levels consistent with those required to inhibit MEK1/2 activity at all dose levels
[1]; human
  Tmax: 1.02 to 2.27 h
[2]
  pMEK1/2 levels in skin biopsies, post- vs pre-treatment: significant accumulation
[3]
  Serious adverse events thought to be drug-related: one
pERK1/2
  Suppression of pERK1/2 in melanoma patient samples: ≥ 60%
[4]; continuously, subsequently revised due to late retinal vein occlusion
  Maximum tolerated dose (MTD), single agent: 15 mg twice daily (B.D)
[4]; irrespective of the schedule
  Doses resulting in intolerable toxicity, single agent: > 15 mg twice a day (B.D)
[4]; multiple B.D dosing
  AUC at day 21 compared to day 1 (first dose), single agent: slightly higher
[5]; days 1–21 of 28-day cycle, with crizotinib 200 mg B.D
  Maximum tolerable dose (MTD) of PD-0325901 in combination with crizotinib: 8 mg B.D

## C[C@@H](Oc1cc(-c2cnn(C3CCNCC3)c2)cnc1N)c1c(Cl)ccc(F)c1Cl [crizotinib]
[1]; Cycle 1 Day 21 vs Cycle 1 Day 28
  Steady state on multiple dosing: reached steady state by day 21
[1]; all cohorts (data not shown)
  Median trough plasma concentrations: > 62 ng/mL
[1]; days 21 and 28, p < 0.05
  Increase in crizotinib Cmax, Cmin and AUC0-10h with B.D dosing (cohorts 2-4) compared with cohort 1 (O.D): 1.6–2.6 fold
[1]; human, in vivo
  Effect of PD-0325901 dose escalation (cohort 2 to cohort 4) on PK parameters of crizotinib: did not appear to affect
[1]; human
  Tmax: 2.76 to 5.21 h
cMET
  Pre-clinically predicted effective concentration to inhibit c-MET: 62 ng/mL
[5]; all cohorts, combination treatment
  Number of drug-related adverse events determined to be related to the named drug: 124
[5]; combination treatment, all cohorts
  Patients requiring a dose reduction of the named drug due to DR-AEs: No patients
[5]; continuously (days 1–28), with PD-0325901 8 mg B.D
  Maximum tolerable dose (MTD) of crizotinib in combination with PD-0325901: 200 mg B.D
